This passage reports pIC50 and MIC results from patent publication US7498343B2, “Mycobacterial inhibitors” (priority 2002, dated 2009).

The test system of one assay is M. Smegmatis ATCC607. As to the kind of experiment: In-vitro method for testing compounds for anti-bacterial activity against strain M. smegmatis ATCC607 (Alamar Blue growth inhibition). Format: cell-based. The settings on record: M. smegmatis ATCC607; pIC50 = -logIC50, IC50 in M, 50% inhibitory concentration for bacterial growth; 48 hours incubation. The method, boiled down:
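About 250 CFU/well M. smegmatis ATCC607 in Mueller-Hinton broth exposed to five-fold serial compound dilutions, 48 h at 37 °C, humidified 5% CO2. Growth read by Alamar Blue fluorescence (ex 530/em 590 nm) after 2 h further incubation; % growth inhibition calculated.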

Assay [1] has as its system Mycobacterium tuberculosis (strain H37RV). As to the kind of experiment: In-vitro method for testing compounds against M. tuberculosis (resazurin growth inhibition, MIC). The settings on record: MIC data representing IC90's, 7 days incubation, resazurin fluorescence. Format: cell-based. (In general: Alamar Blue is a resazurin reagent that responds to reducing activity.)

Structures are written as SMILES.

On to `COc1nc2ccc(Br)cc2cc1C(c1ccccc1)C(O)(CCCN1CCCC1)c1ccc2ccccc2c1` (single isomer, unassigned) [Compound 132], for which the pIC50 (commonly the IC50 on a negative log10 scale, so that one unit is a factor of ten) in the assay on M. Smegmatis ATCC607 is listed as 4.4. The MIC in assay [1] worked out at 47.31 microgram/ml.
In the same order, the values of `COc1nc2ccc(Br)cc2cc1C(c1ccccc1)C(O)(CCCN1CCCC1)c1ccc2ccccc2c1` (single isomer, unassigned) [Compound 133] are 5.1 and 59.56 microgram/ml.
For `COc1ccc2nc(OC)c(C(c3ccccc3)C(O)(CCN(C)C)c3cccc(F)c3)cc2c1` (single isomer, unassigned) [Compound 134] the same measures were 6.5 and 7.52 microgram/ml.
For `COc1ccc2nc(OC)c(C(c3ccccc3)C(O)(CCN(C)C)c3cccc(F)c3)cc2c1` (single isomer, unassigned) [Compound 135] the same measures were 7.4 and 1.50 microgram/ml.
In the assay with M. Smegmatis ATCC607, `CN(C)CCC(O)(c1cccc2ccccc12)C(c1ccccc1)c1cc2cc(Br)ccc2[nH]c1=O` (single isomer, unassigned) [Compound 138] registered a pIC50 of 6.6. In assay [1], this compound gave an MIC of 8.58 microgram/ml.
Consider `COc1nc2ccc(Br)cc2cc1C(c1ccccc1)C(O)(CCN1CCOCC1)c1ccc2ccccc2c1` (single isomer, unassigned) [Compound 139], for which the negative-log IC50 (pIC50) in the assay on M. Smegmatis ATCC607 is 4.1. In assay [1], this compound yielded an MIC of 59.76 microgram/ml.
As for `COc1nc2ccc(Br)cc2cc1C(c1ccccc1)C(O)(CCN1CCOCC1)c1ccc2ccccc2c1` (single isomer, unassigned) [Compound 140], the pIC50 in the assay with M. Smegmatis ATCC607 came to 5.8. This compound also showed an MIC in assay [1] of 59.76 microgram/ml.
In turn, `COc1nc2ccc(Br)cc2cc1C(c1ccccc1)C(O)(CCN(C)C)c1cc(Br)cc2ccccc12` (single isomer, unassigned) [Compound 143] registered a pIC50 in the assay on M. Smegmatis ATCC607 of 6.9. The same compound had an MIC in assay [1] of 50.39 microgram/ml.
In the same order, the values of `COc1nc2ccc(Br)cc2cc1C(c1ccccc1)C(O)(CCN1CCCC1)c1ccc2ccccc2c1` (single isomer, unassigned) [Compound 144] are 7.0 and 52.46 microgram/ml.
In the same order, the values of `COc1nc2ccc(Br)cc2cc1C(c1ccccc1)C(O)(CCN1CCN(C)CC1)c1cccc2ccccc12` (single isomer, unassigned) [Compound 149] are 5.1 and 48.50 microgram/ml.
Take `COc1nc2ccc(Br)cc2cc1C(c1ccccc1)C(O)(CCN(C)C)c1cc(Br)cc2ccccc12` (single isomer, unassigned) [Compound 150]: in the assay on M. Smegmatis ATCC607, the pIC50 was determined as 5.7. In assay [1], this compound yielded an MIC of 63.44 microgram/ml.
`COc1nc2ccc(Br)cc2cc1C(c1ccccc1)C(O)(CCN1CCN(C)CC1)c1cc(Br)cc2ccccc12` (single isomer, unassigned) [Compound 151]: the negative logarithm of the IC50 (pIC50) in the assay with M. Smegmatis ATCC607 is 5.0. The same compound yielded an MIC in assay [1] of 13.76 microgram/ml.
For `COc1nc2ccc(Br)cc2cc1C(c1ccccc1)C(O)(CCN1CCN(C)CC1)c1cc(Br)cc2ccccc12` (single isomer, unassigned) [Compound 152] the same measures were 5.8 and 10.93 microgram/ml.
In the same order, the values of `COc1nc2ccc(Br)cc2cc1C(c1ccccc1)C(O)(CCN1CCN(C)CC1)c1ccc2cc(Br)ccc2c1` (single isomer, unassigned) [Compound 153] are 5.3 and 54.77 microgram/ml.
In the same order, the values of `COc1nc2ccc(Br)cc2cc1C(c1ccccc1)C(O)(CCN1CCN(C)CC1)c1ccc2cc(Br)ccc2c1` (single isomer, unassigned) [Compound 154] are 4.9 and 68.95 microgram/ml.
For `COc1nc2ccc(Br)cc2cc1C(c1ccccc1)C(O)(CCN1CCN(C)CC1)c1cccc2ccccc12` (single isomer, unassigned) [Compound 156], the negative-log IC50 (pIC50) with M. Smegmatis ATCC607 stood at 5.3. Besides, in assay [1], the MIC is given as 9.68 microgram/ml.
In the same order, the values of `COc1nc2ccc(Br)cc2cc1C(c1ccccc1)C(O)(CCN1CCCC1)c1ccc2cc(Br)ccc2c1` (single isomer, unassigned) [Compound 157] are 5.6 and 52.46 microgram/ml.
Turning to `COc1nc2ccc(Br)cc2cc1C(c1ccccc1)C(O)(CCN1CCOCC1)c1cccc2ccccc12` (single isomer, unassigned) [Compound 158], in the assay on M. Smegmatis ATCC607, the negative-log IC50 (pIC50) is listed as 5.3. In assay [1], this compound displayed an MIC of 59.76 microgram/ml.
For `COc1ccc2cc(C(O)(CCN(C)C)C(c3ccccc3)c3cc4cc(Br)ccc4nc3OC)ccc2c1` (single isomer, unassigned) [Compound 162] the same measures were 7.0 and 9.28 microgram/ml.
In the assay on M. Smegmatis ATCC607, `COc1ccc2cc(C(O)(CCN(C)C)C(c3ccccc3)c3cc4cc(Br)ccc4nc3OC)ccc2c1` (single isomer, unassigned) [Compound 163] had a pIC50 of 5.9. Further, in assay [1], the MIC is recorded as 46.51 microgram/ml.
Regarding `COCCOc1nc2ccc(Br)cc2cc1C(c1ccccc1)C(O)(CCN(C)C)c1cccc(F)c1` (single isomer, unassigned) [Compound 164], the pIC50 in the assay with M. Smegmatis ATCC607 is on record as 7.9. The same compound gave an MIC in assay [1] of 0.36 microgram/ml.
`COCCOc1nc2ccc(Br)cc2cc1C(c1ccccc1)C(O)(CCN(C)C)c1cccc(F)c1` (single isomer, unassigned) [Compound 165] displayed a negative-log IC50 (pIC50) with M. Smegmatis ATCC607 of 6.6. The MIC in assay [1] stood at 2.26 microgram/ml.
In the same order, the values of `COc1nc2ccc(Br)cc2cc1C(c1ccccc1)C(O)(CCN(C)C)c1c(F)cccc1F` (single isomer, unassigned) [Compound 167] are 5.5 and 43.01 microgram/ml.
On to `COc1nc2ccc(Br)cc2cc1C(c1ccccc1)C(O)(CCn1ccnc1)c1cccc2ccccc12` (single isomer, unassigned) [Compound 173], for which the negative-log IC50 (pIC50) with M. Smegmatis ATCC607 turned out to be 4.7. Also, the MIC in assay [1] is listed as 57.85 microgram/ml.
In the same order, the values of `COc1nc2ccc(-c3ccco3)cc2cc1C(c1ccccc1)C(O)(CCN(C)C)c1cccc(F)c1` (single isomer, unassigned) [Compound 174] are 6.8 and 0.06 microgram/ml.
The compound `COc1nc2ccc(-c3ccco3)cc2cc1C(c1ccccc1)C(O)(CCN(C)C)c1cccc(F)c1` (single isomer, unassigned) [Compound 175] had a pIC50 in the assay on M. Smegmatis ATCC607 of 6.5. For the same compound, the MIC in assay [1] is reported as 10.19 microgram/ml.
In the same order, the values of `COCCOc1nc2ccc(Br)cc2cc1C(c1ccccc1)C(O)(CCN(C)C)c1cccc2ccccc12` (single isomer, unassigned) [Compound 176] are 6.8 and 9.50 microgram/ml.
In the same order, the values of `COc1nc2ccc(Br)cc2cc1C(c1ccccc1)C(O)(CCN1CCOCC1)c1ccc2cc(Br)ccc2c1` (single isomer, unassigned) [Compound 178] are 4.5 and 67.65 microgram/ml.
`COc1nc2ccc(C#N)cc2cc1C(c1ccccc1)C(O)(CCN(C)C)c1cccc(F)c1` (single isomer, unassigned) [Compound 179] yielded a pIC50 with M. Smegmatis ATCC607 of 7.0. Also, the MIC in assay [1] is 1.48 microgram/ml.
For `COc1nc2ccc(C#N)cc2cc1C(c1ccccc1)C(O)(CCN(C)C)c1cccc(F)c1` (single isomer, unassigned) [Compound 180] the same measures were 6.6 and 3.73 microgram/ml.
In the assay with M. Smegmatis ATCC607, `COc1nc2ccc(Br)cc2cc1C(c1ccccc1)C(O)(CCN(C)C)c1ccc(F)cc1` (single isomer, unassigned) [Compound 181] showed a pIC50 of 6.9. In assay [1], the MIC amounted to 8.30 microgram/ml.
For `COc1nc2ccc(Br)cc2cc1C(c1ccccc1)C(O)(CCN(C)C)c1ccc(F)cc1` (single isomer, unassigned) [Compound 182] the same measures were 6.3 and 8.30 microgram/ml.
For `COc1nc2ccc(Br)cc2cc1C(c1ccccc1)C(O)(CCN(C)C)c1cccc(C(F)(F)F)c1` (single isomer, unassigned) [Compound 183] the same measures were 8.3 and 0.36 microgram/ml.
In turn, `COc1nc2ccc(Br)cc2cc1C(c1ccccc1)C(O)(CCCN(C)C)c1cccc2ccccc12` (single isomer, unassigned) [Compound 186] had a negative logarithm of the IC50 (pIC50) in the assay on M. Smegmatis ATCC607 of 4.5. The compound also displayed an MIC in assay [1] of 56.96 microgram/ml.
In the same order, the values of `COc1nc2ccc(Br)cc2cc1C(c1ccccc1)C(O)(CCCCN(C)C)c1ccc2ccccc2c1` (single isomer, unassigned) [Compound 190] are 6.5 and 1.85 microgram/ml.
Compound `COc1nc2ccc(Br)cc2cc1C(c1ccccc1)C(O)(CCCCN(C)C)c1ccc2ccccc2c1` (single isomer, unassigned) [Compound 191] came in with a pIC50 with M. Smegmatis ATCC607 of 6.5. In assay [1], this compound gave an MIC of 1.85 microgram/ml.
Regarding `CCN(CC)CCCC(O)(c1ccc2ccccc2c1)C(c1ccccc1)c1cc2cc(Br)ccc2nc1OC` (single isomer, unassigned) [Compound 192], the negative logarithm of the IC50 (pIC50) in the assay with M. Smegmatis ATCC607 worked out at 6.5. Besides, the MIC in assay [1] turned out to be 5.98 microgram/ml.
In the same order, the values of `CCN(CC)CCCC(O)(c1ccc2ccccc2c1)C(c1ccccc1)c1cc2cc(Br)ccc2nc1OC` (single isomer, unassigned) [Compound 193] are 5.6 and 9.47 microgram/ml.
In the assay with M. Smegmatis ATCC607, `COc1nc2ccc(Br)cc2cc1C(c1ccccc1)C(O)(CCCN1CCCC1)c1cccc2ccccc12` (single isomer, unassigned) [Compound 194] showed a pIC50 of 4.9. This compound also showed an MIC in assay [1] of 47.31 microgram/ml.
